Measurements: patent US9763957B2, “Autotaxin inhibitors” (Novartis AG, priority 2013, dated 2017)

target: Recombinant human ATX (Homo sapiens (Human), UniProt Q13822); assay: ATX inhibition assay (choline release, Amplex Red fluorescence); format: biochemical; details: ATX 10 nM, LPC 18:1 10 μM, 37° C., 20 min pre-incubation; mean of n≧2
Procedure: Reagents—LPC (oleoyl (18:1)) was purchased from Avanti Polar Lipids (Alabaster, Ala.) and solubilized in methanol to 20 mM. Amplex Red was obtained from Invitrogen Life Technologies (Paisley, UK) and dissolved in DMSO to 10 mM. Choline oxidase and horseradish peroxidase (HRP) were obtained from Sigma Aldrich (Dorset, UK) and dissolved in HBSS to 20 U/ml and 200 U/ml respectively. All reagents were stored at −20° C. in single use aliquots. All experimental measurements were performed in assay buffer made up immediately prior to use (HBSS, 0.01% BSA essentially fatty acid free).
PerkinElmer EnVision (Fluorescence Intensity/Absorbance Monochromator) or Tecan Infinite 200 PRO series plate reader was used to detect change in fluorescent intensity.
Assessing ATX inhibition—ATX activity was determined by measurement of released choline in reactions containing ATX (10 nM), choline oxidase (0.1 U/ml), HRP (100 U/ml), amplex red (50 μM) and LPC 18:1 (10 μM). Compounds of the invention were prepared as 10 point serial dilutions from 1 μM in duplicate and pre-incubated with ATX at 37° C. for 20 minutes prior to the addition of remaining reagents. The liberated choline was measured from changes in fluorescence intensity (λex 530 nm, λem 590 nm) of the product resurofin at 37° C. every 2 minutes over a 40-minute period. ATX activity was measured as a slope of the linear portion of the progress curve, typically between 14 to 24 minutes.
Data analysis—Slope data was exported to Graphpad prism (Graphpad software, San Diego, Calif.) where data was fitted to equation 1. Y=Bottom+(Top-Bottom)/(1+10^((Log IC50−X)*HillSlope)) Equation 1: […]

SMILES | IC50
CNC(=O)[C@@H]1CCCCN1C(=O)/C=C/c1ccc(C(F)(F)F)cc1Cn1nnc(C)n1 [Example 6, (S,E)-N-Methyl-1-(3-(2-((5-methyl-2H-tetrazol-2-yl)methyl)-4-(trifluoromethyl)phenyl)acryloyl)piperidine-2-carboxamide] | 0.018 µM
Cc1nnn(Cc2cc(Cl)ccc2/C=C/C(=O)N2CCC(c3nnc(CC4CCOCC4)o3)CC2)n1 [Example 110, (E)-3-(4-Chloro-2-((5-methyl-2H-tetrazol-2-yl)methyl)phenyl)-1-(4-(5-((tetrahydro-2H-pyran-4-yl)methyl)-1,3,4-oxadiazol-2-yl)piperidin-1-yl)prop-2-en-1-one] | 0.0052 µM
Cc1nnn(Cc2cc(C(F)(F)F)ccc2/C=C/C(=O)N2CCCC[C@H]2c2nnc(C)o2)n1 [Example 1, (S,E)-1-(2-(5-Methyl-1,3,4-oxadiazol-2-yl)piperidin-1-yl)-3-(2-((5-methyl-2H-tetrazol-2-yl)methyl)-4-(trifluoromethyl)phenyl)prop-2-en-1-one] | 0.0088 µM
Cc1nnn(Cc2cc(C(F)(F)F)ccc2/C=C/C(=O)N2CCC(N3CCCCC3=O)CC2)n1 [Example 97, (E)-1′-(3-(2-((5-Methyl-2H-tetrazol-2-yl)methyl)-4-(trifluoromethyl)phenyl)acryloyl)-[1,4′-bipiperidin]-2-one] | 0.023 µM
Cc1nnn(Cc2cc(C(F)(F)F)ccc2/C=C/C(=O)N2CCC(C(=O)O)CC2)n1 [Example 51, (E)-1-(3-(2-((5-Methyl-2H-tetrazol-2-yl)methyl)-4-(trifluoromethyl)phenyl)acryloyl)piperidine-4-carboxylic acid] | 0.077 µM
Cc1nnn(Cc2cc(C(F)(F)F)ccc2/C=C/C(=O)N2CCC(NC(=O)CCCc3c[nH]nn3)CC2)n1 [Example 152, (E)-N-(1-(3-(2-((5-Methyl-2H-tetrazol-2-yl)methyl)-4-(trifluoromethyl)phenyl)acryloyl)piperidin-4-yl)-4-(1H-1,2,3-triazol-4-yl)butanamide] | 0.0039 µM
Cc1cnn(Cc2cc(Cl)ccc2/C=C/C(=O)N2CCC(Cc3nnc(C)o3)CC2)n1 [Example 80, (E)-3-(4-Chloro-2-((4-methyl-2H-1,2,3-triazol-2-yl)methyl)phenyl)-1-(4-((5-methyl-1,3,4-oxadiazol-2-yl)methyl)piperidin-1-yl)prop-2-en-1-one] | 0.454 µM
C[C@@H]1CN(Cc2ccc(F)cc2)CCN1C(=O)/C=C/c1ccc(Cl)cc1Cc1nnn(C)n1 [Example 143, (R,E)-3-(4-Chloro-2-((2-methyl-2H-tetrazol-5-yl)methyl)phenyl)-1-(4-(4-fluorobenzyl)-2-methylpiperazin-1-yl)prop-2-en-1-one] | 0.031 µM
Cc1nnn(Cc2cc(Cl)ccc2/C=C/C(=O)N2CCC(Cn3nnc(C)n3)CC2)n1 [Example 109, (E)-3-(4-Chloro-2-((5-methyl-2H-tetrazol-2-yl)methyl)phenyl)-1-(4-((5-methyl-2H-tetrazol-2-yl)methyl)piperidin-1-yl)prop-2-en-1-one] | 0.016 µM
Cc1nnn(Cc2cc(C(F)(F)F)ccc2/C=C/C(=O)N2CCN(Cc3cnn(C)c3)CC2)n1 [Example 53, (E)-1-(4-((1-Methyl-1H-pyrazol-4-yl)methyl)piperazin-1-yl)-3-(2-((5-methyl-2H-tetrazol-2-yl)methyl)-4-(trifluoromethyl)phenyl)prop-2-en-1-one] | 0.002 µM
Cc1cnn(C2CCN(C(=O)/C=C/c3ccc(Cl)cc3Cn3nnc(C)n3)CC2)n1 [Example 25, (E)-3-(4-Chloro-2-((5-methyl-2H-tetrazol-2-yl)methyl)phenyl)-1-(4-(4-methyl-2H-1,2,3-triazol-2-yl)piperidin-1-yl)prop-2-en-1-one] | 0.0085 µM
Cc1nnn(Cc2cc(Cl)ccc2/C=C/C(=O)N2CCC(Cc3ccccc3)CC2)n1 [Example 139, (E)-1-(4-Benzylpiperidin-1-yl)-3-(4-chloro-2-((5-methyl-2H-tetrazol-2-yl)methyl)phenyl)prop-2-en-1-one] | 0.067 µM
Cc1nnn(Cc2cc(Cl)ccc2/C=C/C(=O)N2CCC(c3ccc(F)cc3)CC2)n1 [Example 64, (E)-3-(4-Chloro-2-((5-methyl-2H-tetrazol-2-yl)methyl)phenyl)-1-(4-(4-fluorophenyl)piperidin-1-yl)prop-2-en-1-one] | 0.031 µM
Cc1nnn(Cc2cc(Cl)ccc2/C=C/C(=O)N2CCC(CC(=O)N3CCOCC3)CC2)n1 [Example 129, (E)-3-(4-Chloro-2-((5-methyl-2H-tetrazol-2-yl)methyl)phenyl)-1-(4-(2-morpholino-2-oxoethyl)piperidin-1-yl)prop-2-en-1-one] | 0.049 µM
Cc1nnn(Cc2cc(C(F)(F)F)ccc2/C=C/C(=O)N2CCC(c3nnc(C4CC4)o3)CC2)n1 [Example 86, (E)-1-(4-(5-Cyclopropyl-1,3,4-oxadiazol-2-yl)piperidin-1-yl)-3-(2-((5-methyl-2H-tetrazol-2-yl)methyl)-4-(trifluoromethyl)phenyl)prop-2-en-1-one] | 0.0048 µM
Cc1nnn(Cc2cc(Cl)ccc2/C=C/C(=O)N2CCC(O)(Cn3cc(C(=O)N4CCCCC4)cn3)CC2)n1 [Example 16, (E)-3-(4-Chloro-2-((5-methyl-2H-tetrazol-2-yl)methyl)phenyl)-1-(4-hydroxy-4-((4-(piperidine-1-carbonyl)-1H-pyrazol-1-yl)methyl)piperidin-1-yl)prop-2-en-1-one] | 0.011 µM
Cc1nnn(Cc2cc(C(F)(F)F)ccc2/C=C/C(=O)N2CCC[C@H]2C)n1 [Example 117, (R,E)-3-(2-((5-Methyl-2H-tetrazol-2-yl)methyl)-4-(trifluoromethyl)phenyl)-1-(2-methylpyrrolidin-1-yl)prop-2-en-1-one] | 0.263 µM
Cc1nnn(Cc2cc(C(F)(F)F)ccc2/C=C/C(=O)N2CCN(Cc3nonc3C)CC2)n1 [Example 116, (E)-1-(4-((4-Methyl-1,2,5-oxadiazol-3-yl)methyl)piperazin-1-yl)-3-(2-((5-methyl-2H-tetrazol-2-yl)methyl)-4-(trifluoromethyl)phenyl)prop-2-en-1-one] | 0.033 µM
Cc1noc(Cc2cc(Cl)ccc2/C=C/C(=O)N2CCC(Cc3nnc(C)o3)CC2)n1 [Example 21, (E)-3-(4-Chloro-2-((3-methyl-1,2,4-oxadiazol-5-yl)methyl)phenyl)-1-(4-((5-methyl-1,3,4-oxadiazol-2-yl)methyl)piperidin-1-yl)prop-2-en-1-one] | 0.208 µM
Cc1nnn(Cc2cc(C(F)(F)F)ccc2OCC(=O)N2CCC(c3noc(C)n3)CC2)n1 [Example 36, 1-(4-(5-Methyl-1,2,4-oxadiazol-3-yl)piperidin-1-yl)-2-(2-((5-methyl-2H-tetrazol-2-yl)methyl)-4-(trifluoromethyl)phenoxy)ethanone] | 0.171 µM

More lines, now with the values ahead:

IC50 | SMILES
0.0088 µM | Cc1nnn(Cc2cc(Cl)ccc2/C=C/C(=O)N2CCN(Cc3cnc(N4CCOCC4)nc3)CC2)n1 [Example 140.8, (E)-3-(4-Chloro-2-((5-methyl-2H-tetrazol-2-yl)methyl)phenyl)-1-(4-((2-morpholinopyrimidin-5-yl)methyl)piperazin-1-yl)prop-2-en-1-one]
0.079 µM | Cc1nnn(Cc2cc(Cl)ccc2/C=C/C(=O)N2CCC(O)C[C@H]2C)n1 (single isomer, unassigned) [Example 50b, (E)-3-(4-chloro-2-((5-methyl-2H-tetrazol-2-yl)methyl)phenyl)-1-((2R, 4R or 4S)-4-hydroxy-2-methylpiperidin-1-yl)prop-2-en-1-one]
0.477 µM | Cc1nnn(Cc2cc(Cl)ccc2/C=C/C(=O)N2CC(S(C)(=O)=O)C2)n1 [Example 49.2, (E)-3-(4-Chloro-2-((5-methyl-2H-tetrazol-2-yl)methyl)phenyl)-1-(3-(methylsulfonyl)azetidin-1-yl)prop-2-en-1-one]
0.0049 µM | Cc1nnn(Cc2cc(Cl)ccc2/C=C/C(=O)N2CCCCC2c2nc(C(C)C)no2)n1 (single isomer, unassigned) [Example 30a, (R or S, E)-3-(4-Chloro-2-((5-methyl-2H-tetrazol-2-yl)methyl)phenyl)-1-(2-(3-isopropyl-1,2,4-oxadiazol-5-yl)piperidin-1-yl)prop-2-en-1-one]
0.0042 µM | Cc1nnn(Cc2cc(Cl)ccc2/C=C/C(=O)N2CCC(C(O)c3ccc(Cl)cc3)CC2)n1 (single isomer, unassigned) [Example 66a, ((R or S), E)-3-(4-Chloro-2-((5-methyl-2H-tetrazol-2-yl)methyl)phenyl)-1-(4-((4-chlorophenyl)(hydroxy)methyl)piperidin-1-yl)prop-2-en-1-one]
0.024 µM | Cc1nnn(Cc2cc(Cl)ccc2/C=C/C(=O)N2CCC(OCC(=O)N3CCCCC3)CC2)n1 [Example 49.10, (E)-3-(4-Chloro-2-((5-methyl-2H-tetrazol-2-yl)methyl)phenyl)-1-(4-(2-oxo-2-(piperidin-1-yl)ethoxy)piperidin-1-yl)prop-2-en-1-one]
0.01 µM | Cc1nnn(Cc2cc(Cl)ccc2/C=C/C(=O)N2CCCN(c3ncccn3)CC2)n1 [Example 49.25, (E)-3-(4-Chloro-2-((5-methyl-2H-tetrazol-2-yl)methyl)phenyl)-1-(4-(pyrimidin-2-yl)-1,4-diazepan-1-yl)prop-2-en-1-one]
